# Measurements from article PMC7105311, “Structure and function of Bs164 β-mannosidase from Bacteroides salyersiae the founding member of glycoside hydrolase family GH164” (The Journal of Biological Chemistry, 2019).
# Where two headings read alike, the source gives them in different places.
# Molecular target: T1, Bs164 (Bacteroides salyersiae, UniProt I9SUA3)
# T1 construct: gene HMPREF1071_03408; tag cut by 3C protease for kinetics, His6-tagged for crystals
# T1 sequence (I9SUA3 22-673): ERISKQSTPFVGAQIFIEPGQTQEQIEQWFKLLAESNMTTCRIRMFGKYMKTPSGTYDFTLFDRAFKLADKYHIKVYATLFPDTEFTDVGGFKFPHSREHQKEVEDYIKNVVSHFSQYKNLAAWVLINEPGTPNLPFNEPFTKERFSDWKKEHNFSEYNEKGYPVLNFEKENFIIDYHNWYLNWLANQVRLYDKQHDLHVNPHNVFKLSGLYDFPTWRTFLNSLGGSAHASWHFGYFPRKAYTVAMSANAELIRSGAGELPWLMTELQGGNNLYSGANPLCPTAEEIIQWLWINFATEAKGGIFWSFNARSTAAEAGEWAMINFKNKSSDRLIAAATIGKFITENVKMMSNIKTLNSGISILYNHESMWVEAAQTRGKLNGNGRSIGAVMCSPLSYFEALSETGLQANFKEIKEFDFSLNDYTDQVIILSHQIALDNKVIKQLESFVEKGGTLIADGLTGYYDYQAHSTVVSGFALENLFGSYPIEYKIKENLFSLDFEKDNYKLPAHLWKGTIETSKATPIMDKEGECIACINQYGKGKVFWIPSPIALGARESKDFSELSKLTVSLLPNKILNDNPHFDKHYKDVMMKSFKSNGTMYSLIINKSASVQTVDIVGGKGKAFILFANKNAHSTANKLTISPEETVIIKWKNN
# Assay: inhibition of pNP β-Man hydrolysis, absorbance, competitive model fit
# Format: biochemical
# Description: inhibition of pNP β-Man hydrolysis, absorbance, competitive model fit on Bs164 | Mannoimidazole and noeuromycin act as competitive inhibitors of Bs164 with inhibition constants (Ki)
SMILES,Ki [µM],"Ki (competitive, substrate pNP β-Man, 80 mM MES pH 5.5, 160 mM NaCl, 25 °C, crystal structure 2.06 Å, -1 subsite) [µM]"
OC[C@@H]1[C@@H](O)[C@H](O)[C@H](O)c2nccn21 [mannoimidazole],470 ± 60,–
OC[C@H]1CN[C@@H](O)[C@@H](O)[C@@H]1O [noeuromycin],–,0.34 ± 0.04
